The record followed here is patent US11247998B2, “Piperazine heteroaryl derivative, preparation method therefor and use of same in medicine” (priority 2017, dated 2022).

A short description of series [1]: Effect on in vitro proliferation of HepG2 cells (CellTiter-Glo). It counts as cell-based. The settings on record: human; HepG2 cells, 72 hours, CellTiter-Glo. As for the experimental part: Test Example 2. Effect of the Compound of the Present Invention on In Vitro Proliferation of HepG2 Cells
HepG2 cells in logarithmic growth phase were taken and digested with trypsin to prepare a cell suspension, which was incubated in a 96-well plate (transparent bottom white 96-well plate, PerkinElmer) at 6,000 cells/well, at 5% carbon dioxide, 37° C. for 16-20 hours. On Day 2, the compound was dissolved in pure DMSO at a concentration of 20 mM. The compound was diluted in 3-fold concentration gradient using an automatic pipetting station (Bravo), 8 concentration points for each compound, and the control well was DMSO. The compound formulated in DMSO at each concentration point was diluted 200-fold with EMEM (containing 10% FBS) medium. The cell culture plate inoculated on Day 1 was taken out. The medium in the wells was removed by a negative pressure suction device, and the formulated medium containing the compound at each concentration was added respectively to each well at 100 μl/well. The plate was incubated at 37° C. for 72 hours. On Day 5, the 96-well cell culture plate was taken out, and freshly formulated CellTiter Glo was added to each well at 100 μl/well. The 96-well plate was left to stand for 5-10 minutes, the bottom was then sealed with a white bottom sealing film (PerkinElmer). The plate was placed in the microplate reader to measure the luminescence signal. The CC50 value of the compound was calculated with Graphpad Prism software according to each concentration of the compound and the corresponding proliferation inhibition signal value.
The inhibition effect of the compound of the present invention on in vitro proliferation of HepG2 cells was determined by the above experiment.
A general note: In ATP-based viability assays light output follows the ATP content of the culture.

The nature of series [2]: Pharmacokinetics assay in rats after intragastrical administration (LC/MS/MS of plasma). The class given is in vivo. As to conditions: both sexes, rat, plasma, po, SD rats, 2 mg/kg; for Vd/F: read-out: Apparent distribution volume Vz/F; for AUC: read-out: Area under curve AUC; for bioavailability: read-out: Bioavailability (%) F %; for CL/F: read-out: Clearance CLz/F; for half-life: read-out: Half-life T1/2 (converted); for Cmax: read-out: Plasma concentration Cmax; for MRT: read-out: Residence time MRT. As for the experimental part: Pharmacokinetics assay of the compound of the present invention
Rats were used as test animals. The drug concentration in plasma at different time points was determined by LC/MS/MS method after intragastrical administration of the compound of Example 1, the compound of Example 2, the compound of Example 4, the compound of Example 6, the compound of Example 7, the compound of Example 11, the compound of Example 39, the compound of Example 42, the compound of Example 44, the compound of Example 45 and the compound of Example 47 to rats. The pharmacokinetic behavior and property of the compound of the present invention were studied and evaluated in rats.
44 Healthy adult SD rats (half male and half female, 4 rats/group) were purchased from Shanghai Jiesijie Laboratory Animal Co., LTD, with Certificate No.: SCXK (Shanghai) 2013-0006.
A certain amount of the test compound was weighed, and added with 5% by volume of DMSO, 5% by volume of tween 80 and 90% by volume of normal saline to prepare a 0.2 mg/mL colorless, clear and transparent solution.
After an overnight fast, SD rats were administrated intragastrically with the test compound at an administration dose of 2.0 mg/kg and an administration volume of 10.0 mL/kg.
The rats were intragastrically administrated the compound of Example 1, the compound of Example 2, the compound of Example 4, the compound of Example 6, the compound of Example 7, the compound of Example 11, the compound of Example 39, the compound of Example 42, the compound of Example 44, the compound of Example 45 and the compound of Example 47. 0.1 ml of blood was taken from the orbit before administration and at 0.5, 1.0, 2.0, 4.0, 6.0, 8.0, 11.0 and 24.0 hours after administration. The samples were stored in heparinized tubes, and centrifuged for 10 minutes at 3500 rpm to separate the blood plasma. The plasma samples were stored at −20° C. The rats were fed two hours after administration.
The content of the test compound in the plasma of rats after intragastrical administration of the test compound at different concentrations was determined: 25 μL of rat plasma at each time after administration was taken, added with 40 μL of the internal standard solution of camptothecin (100 ng/mL) and 200 μL of acetonitrile, vortex-mixed for 5 minutes, and centrifuged for 10 minutes (4000 rpm). 0.2 μL of the supernatant was taken from the plasma samples for LC/MS/MS analysis.

The subject of series [3] is HBV DNA replication in HepG2.2.15 cells. In words: In vitro anti-HBV activity test (quantitative assay of intracellular HBV DNA), HepG2.2.15 cells, quantitative PCR. It counts as cell-based, hepatitis B virus (HBV). The settings on record: Hepatitis B virus, HBV DNA by quantitative PCR; for EC50: compound treatment Day 2 to Day 8; for Emax: read-out: Emax (effect value of the compound to maximally inhibit HBV DNA replication). The protocol: In vitro anti-HBV activity test of the compound of the present invention (quantitative assay of intracellular HBV DNA)
HepG2.2.15 cell is a stable expression cell line that has integrated HBV genome.
Virus particles containing HBV DNA can be synthesized by replication, transcription and encapsidation in the cells, and then secreted. In this study, the quantitative analysis of HBV DNA produced by HepG2.2.15 in vitro proliferation was carried out by quantitative PCR method, thereby determining the activity of the compound of the present invention on inhibiting the HBV DNA replication by inhibiting the assembly of HBV capsid protein.
HepG2.2.15 cells were cultured in DMEM/high glucose medium (10% FBS, […] G418) and passaged every three days. On the day of the experiment, a cell suspension was prepared with fresh cell culture medium, and incubated in a 96-well plate (Corning, #3599) at 40,000 cells/well, at 5% carbon dioxide, 37° C. On Day 2, the compound was dissolved in pure DMSO at a concentration of 20 mM, and then the first concentration of 2 mM was formulated with DMSO, and diluted in 4-fold concentration gradient to 8 concentrations. A control well was added with 90 μl of DMSO. The compound solution was diluted 200-fold with DMEM/high glucose medium. The cell culture plate inoculated on Day 1 was taken out. The medium in the wells was removed by a negative pressure suction device, and the formulated medium containing the compound at each concentration was added respectively to each well at 200 μl/well. The plate was incubated at 37° C. for 72 hours. On Day 5, the medium of the cultured cells was replaced with fresh medium containing the same compound in the same way as Day 2, and then the plate was incubated at 37° C. for 72 hours. On Day 8, the cell culture plate was taken out, centrifuged at 300 g for 3 minutes, and the culture supernatant was collected at 200 μl/well. HBV DNA was extracted from the cell culture supernatant with Qiagen automatic DNA extraction device, and the specific method referred to the instructions of the reagents and instruments. Finally, the extracted DNA was eluted with DNA elution buffer at 100 μl/well. The extracted DNA was subjected to quantitative PCR analysis of HBV DNA using Hepatitis B virus nucleic acid quantitative detection kit (Triplex International Biosciences Co., Ltd.), and the specific method referred to the instruction of the kit. The quantitative standard curve was obtained with the standard sample provided in the kit, and the experiments were performed in parallel. Quantitative conversion of each sample was carried out according to the standard curve. Finally, the EC50 value of the compound was calculated with Graphpad Prism software according to each concentration of the compound and the corresponding DNA value.
The in vitro activity of the compound of the present invention on inhibiting the HBV DNA replication by inhibiting the assembly of HBV capsid protein was determined by the above experiment.

Broadly, the CC50 is the concentration giving 50% cytotoxicity. Broadly, the AUC is the area under the concentration-time curve, a measure of exposure. A word on the MRT: it is the average time that molecules of a dose stay in the body. The term EC50 denotes the midpoint of the concentration-response curve. The Emax is the size of the effect at its maximum, as opposed to the concentration needed. `C[C@@H](NC(=O)c1cnn2c1CN(C(=O)Nc1ccc(F)c(F)c1)CC2)C(F)(F)F` [Example 2, (R)—N^5-(3,4-Difluorophenyl)-N^3-(1,1,1-trifluoropropan-2-yl)-6,7-dihydropyrazolo[1,5-α]pyrazine-3,5(4H)-dicarboxamide] displayed a CC50 at 72 h in series [1] of over 100000 nM. In addition, in series [2], the Vd/F is 2.58 ± 0.638 L/kg, the AUC turned out to be 9250 ± 3310 ng·h/mL, the bioavailability was 107% and the CL/F stood at 4 ± 1.48 mL/min/kg. Also, in series [2], the half-life is 8.01 ± 2.26 h, the Cmax worked out at 661 ± 200 ng/mL and the MRT stood at 11.5 ± 2.8 h. In series [3], the EC50 was determined as 30 nM and the Emax came out at 100%.

For the compound `C[C@@H](NC(=O)c1cnn2c1CN(C(=O)Nc1cc(F)c(F)c(F)c1)CC2)C(F)(F)F` [Example 4, (R)—N^5-(3,4,5-Trifluorophenyl)-N^3-(1,1,1-trifluoropropan-2-yl)-6,7-dihydropyrazolo[1,5-α]pyrazine-3,5(4H)-dicarboxamide], the CC50 at 72 h in series [1] was over 100000 nM. In addition, in series [2], the Vd/F came to 3.69 ± 0.532 L/kg, the AUC worked out at 7130 ± 2640 ng·h/mL, the bioavailability was found to be 120% and the CL/F was found to be 5.08 ± 1.48 mL/min/kg. For the same compound, in series [2], the half-life is 8.8 ± 1.95 h, the Cmax was 425 ± 100 ng/mL and the MRT was 13.1 ± 2.5 h. In series [3], the EC50 turned out to be 27 nM and the Emax was 100%.

The compound `C[C@H]1Cn2cnc(C(=O)N[C@H](C)C(F)(F)F)c2CN1C(=O)Nc1ccc(F)c(F)c1` [Example 6, (S)—N^7-(3,4-Difluorophenyl)-6-methyl-N^1-((R)-1,1,1-trifluoropropan-2-yl)-5,6-dihydroimidazo[1,5-α]pyrazine-1,7(8H)-dicarboxamide] displayed a CC50 at 72 h in series [1] of over 100000 nM. For the same compound, in series [2], the Vd/F was 2.16 ± 0.721 L/kg, the AUC was 12900 ± 6600 ng·h/mL, the bioavailability amounted to 120% and the CL/F is 3.22 ± 1.66 mL/min/kg. For the same compound, in series [2], the half-life is 10.8 ± 8.1 h, the Cmax is 629 ± 167 ng/mL and the mean residence time MRT was 16.7 ± 10.1 h. For the same compound, in series [3], a half-maximal effect (EC50) was put at 4 nM and the Emax stood at 100%.

Take `C[C@H]1Cn2ncc(C(=O)N[C@H](C)C(F)(F)F)c2CN1C(=O)Nc1ccc(F)c(F)c1` [Example 7, (S)—N^5-(3,4-Difluorophenyl)-6-methyl-N^3-((R)-1,1,1-trifluoropropan-2-yl)-6,7-dihydropyrazolo[1,5-α]pyrazine-3,5(4H)-dicarboxamide]: in series [1], the cytotoxic concentration (CC50) at 72 h is over 100000 nM. For the same compound, in series [2], the Vd/F amounted to 1.65 ± 0.174 L/kg, the AUC was 16500 ± 9260 ng·h/mL, the bioavailability was 98% and the CL/F was found to be 2.63 ± 1.46 mL/min/kg. In addition, in series [2], the half-life is 9.72 ± 5.94 h, the Cmax turned out to be 1080 ± 151 ng/mL and the MRT was 14.1 ± 8 h. Further, in series [3], the EC50 was found to be 38 nM and the Emax is 100%.

In series [1], `Cc1cc(NC(=O)N2Cc3c(C(=O)N[C@H](C)C(F)(F)F)nnn3C[C@@H]2C)ccc1F` [Example 40, (S)—N^5-(4-Fluoro-3-methylphenyl)-6-methyl-N^3-((R)-1,1,1-trifluoropropan-2-yl)-6,7-dihydro-[1,2,3]triazolo[1,5-α]pyrazine-3,5(4H)-dicarboxamide] registered a CC50 at 72 h of over 100000 nM. Also, in series [3], the half-maximal effective concentration (EC50) was 20 nM and the Emax came out at 100%.

`C[C@H](NC(=O)c1ncn2c1CN(C(=O)Nc1ccc(F)c(F)c1)[C@@H](C)C2)C(F)(F)F` [Example 41, (S)—N^7-(3,4-Difluorophenyl)-6-methyl-N^1—((S)-1,1,1-trifluoropropan-2-yl)-5,6-dihydroimidazo[1,5-α]pyrazine-1,7(8H)-dicarboxamide] had a half-maximal cytotoxic concentration (CC50) at 72 h in series [1] of over 100000 nM. Also, in series [3], a half-maximal effect (EC50) was put at 24 nM and the Emax came to 100%.

`C[C@H]1Cn2cnc(C(=O)NC3(C)CCC3)c2CN1C(=O)Nc1ccc(F)c(C#N)c1` [Example 46, (S)—N^7-(3-Cyano-4-fluorophenyl)-6-methyl-N^1-(1-methylcyclobutyl)-5,6-dihydroimidazo[1,5-α]pyrazine-1,7(8H)-dicarboxamide] displayed a CC50 at 72 h in series [1] of over 100000 nM. Moreover, in series [3], a half-maximal effect (EC50) was put at 65 nM and the Emax amounted to 97%.

`C[C@H]1Cn2cnc(C(=O)NC3(C)CC3)c2CN1C(=O)Nc1ccc(F)c(C#N)c1` [Example 48, (S)—N^7-(3-Cyano-4-fluorophenyl)-6-methyl-N^1-(1-methylcyclopropyl)-5,6-dihydroimidazo[1,5-α]pyrazine-1,7(8H)-dicarboxamide] yielded a CC50 at 72 h in series [1] of over 100000 nM. In series [3], the midpoint of the response, the EC50, lay at 93 nM and the Emax amounted to 98%.

In the case of `Cc1cc(NC(=O)N2Cc3c(C(=O)N[C@H](C)C(F)(F)F)ncn3C[C@@H]2C)ccc1F` [Example 58, (S)—N^7-(4-Fluoro-3-methylphenyl)-6-methyl-N^1-((R)-1,1,1-trifluoropropan-2-yl)-5,6-dihydroimidazo[1,5-α]pyrazine-1,7(8H)-dicarboxamide], the CC50 at 72 h in series [1] was over 100000 nM. Also, in series [3], a half-maximal response (EC50) required 15 nM and the Emax was 100%.
